Assay results taken from US4358602A, “Ebelactones and production thereof” (Zaidan Hojin Biseibutsu Kagaku Kenkyu Kao, priority 1980, dated 1982).
Values after ≈ are worked out from the molar mass of the structure shown.

Key:
[1] = target: T1, formylmethionine aminopeptidase prepared from rat liver (Rattus norvegicus, UniProt P13676); experiment: Anti-formylmethionine aminopeptidase activity assay; assay type: biochemical; details: rat liver enzyme, substrate N-formylmethionine β-naphthylamide, pH 7.8, 37° C., 25 minutes; read-out: ID50, dose giving 50% inhibition to formylmethionine aminopeptidase (converted)
T1 construct: Formylmethionineaminopeptidase employed is that prepared from rat liver; from tissue; host or cells: rat liver
T1 sequence (P13676 1-732): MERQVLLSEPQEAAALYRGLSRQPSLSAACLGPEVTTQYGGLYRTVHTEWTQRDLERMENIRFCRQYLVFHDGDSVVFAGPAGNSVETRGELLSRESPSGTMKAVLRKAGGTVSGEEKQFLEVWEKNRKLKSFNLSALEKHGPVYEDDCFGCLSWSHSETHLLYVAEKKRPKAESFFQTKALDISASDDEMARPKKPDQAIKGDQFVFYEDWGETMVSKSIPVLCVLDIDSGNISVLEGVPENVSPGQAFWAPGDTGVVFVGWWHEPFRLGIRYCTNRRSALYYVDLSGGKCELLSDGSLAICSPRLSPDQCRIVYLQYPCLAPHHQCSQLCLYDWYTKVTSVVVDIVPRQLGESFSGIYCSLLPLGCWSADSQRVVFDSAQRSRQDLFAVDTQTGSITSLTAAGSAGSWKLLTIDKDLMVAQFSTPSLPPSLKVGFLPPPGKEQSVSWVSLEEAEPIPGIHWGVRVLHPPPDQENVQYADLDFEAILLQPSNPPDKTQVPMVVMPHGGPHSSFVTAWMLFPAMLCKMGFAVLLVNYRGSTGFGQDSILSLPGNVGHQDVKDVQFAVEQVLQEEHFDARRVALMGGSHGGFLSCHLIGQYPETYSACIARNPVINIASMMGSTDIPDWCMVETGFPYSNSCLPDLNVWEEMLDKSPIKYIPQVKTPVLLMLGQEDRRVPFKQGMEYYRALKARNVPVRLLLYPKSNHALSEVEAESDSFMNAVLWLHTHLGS
Method: Further, assay of ebelactone for its anti-formylmethionineaminopeptidase can be made according to the following method. Thus, as the substrate solution is employed a solution of N-formylmethionine β-naphthylamide(as the substrate) in methanol containing 5% (w/v) of "Tween" 20 (a trade name of a non-ionic surface-active agent, a product of Atlas Powder Co., U.S.A.). Formylmethionineaminopeptidase employed is that prepared from rat liver. The substrate solution (0.005 ml), 0.5 ml of 0.1 M Tris-hydrochloric acid buffered solution (pH 7.8) and 0.495 ml of water containing an ebelactone sample to be assayed are mixed together to a total volume of […]. The reaction solution so obtained is further admixed with 0.05 ml of the enzyme solution, followed by effecting the enzymatic reaction at 37° C. for 25 minutes. […] After allowing to stand at ambient temperature for 15 minutes, absorbance (a) at 525 nm of the reaction solution is measured. On the other hand, adsorbance (b) at 525 nm of a control reaction solution obtained from the blank test is measured. Percent of inhibition to the formylmethionine aminopeptidase is calculated in a similar way to the above-mentioned method for determination of the potency for inhibition to esterase.

[2] = system: CDF1 mice immunized with sheep red blood cells (SRBC); experiment: Delayed Type Hypersensitivity (D.T.H.) response to SRBC in mice (cell-mediated immunity); assay type: in vivo; details: 24 hours after eliciting injection
[3] = system: Wister rats, carragheenin-induced footpad swelling; experiment: Suppression of rat footpad swelling caused by carragheenin; assay type: in vivo
Method: Tests were made to estimate the suppressive effect of ebelactone and esterastin (U.S. Pat. Nos. 4,189,438 and 4,242,453) on the swelling of rat footpad caused by injection of carragheenin when the test compounds were administered orally and intraperitoneally to the test animal, Wister rats (male, body weight:140 to 150 g). The test compound was dissolved in about 0.5 ml of ethanol with addition of one drop of a non-ionic surface-active agent "Tween" 80, and the test compound solution in ethanol was diluted with an aqueous gum arabi to prepare an aqueous suspension containing the test dose of ebelactone or esterastin. The test sample suspension so prepared was then administered orally or intraperitoneally to the rats. One hour later, 1% aqueous carragheenin was injected subcutaneously to the footpad to bring about inflammation. After the injection of carragheenin, the volume of the footpad was measured twice, namely at the end of 3 hours and at the end of 5 hours from the carragheenin injection. For control test, the ebelactone or esterastin was omitted in the above test. Degree (%) of suppression of swelling was calculated from the measured volumes of the inflammated footpad.

[4] = target: esterase preparation obtained from pig liver; experiment: Anti-esterase activity assay (modified Huggins and Lapides method); assay type: biochemical; details: substrate p-nitrophenyl acetate, pH 7.0, room temperature, 20 minutes
Method: Firstly, assay of ebelactone for its anti-esterase activity can be made by determining the potency to inhibit esterase according to a modification of the method of C. […] Thus, a commercially available esterase preparation obtained from pig liver (a product of Sigma Co., U.S.A.) is diluted with water to a 1000 folds volume, and the resulting esterase solution (0.025 ml) is admixed with 1 ml of 0.1 M phosphate buffered solution (pH 7.0) containing 0.06% "Triton X-100" (a trade name of an emulsifier consisting of a polyethyleneglycol alkylphenylether, a product of Rohm & Haas Co., U.S.A.) and 0.95 ml of water containing an ebelactone sample to be assayed, and the resulting mixed solution (1.975 ml) is admixed with 0.025 ml of a solution of 40 mM p-nitrophenyl acetate (the substrate) in methanol to start the reaction of p-nitrophenyl acetate with the esterase. After the enzymatic reaction is effected at room temperature for 20 minutes, absorbance (a) at 400 nm of the resulting reaction solution is measured. On the other hand, absorbance (b) at 400 nm of a control reaction solution containing no ebelactone is measured in the same way as above. Percent of inhibition to esterase is calculated according to the following equation:
Inhibition (%)=(b-a)/b×100

[5] = intraperitoneal, 30 mg/kg, 3 Hours after carragheenin
[6] = intraperitoneal, 30 mg/kg, 5 Hours after carragheenin
[7] = intraperitoneal, all dosages and all times, except 5 hours with 5 mg/kg and 3 hours with 10 mg/kg of ebelactone B
[8] = oral, 50 mg/kg, 3 Hours after carragheenin
[9] = oral, 50 mg/kg, 5 Hours after carragheenin

| SMILES | IC50 [1] [nM] | Foodpad thickness ([2]; 0.5 mg/kg oral, control 8.1) [× 0.1 mm] | Degree (%) of suppression of inflammation [3, 5] [%] | Degree (%) of suppression of inflammation [3, 6] [%] | reduction in the degree of swelling as compared to the control test group [3, 7] | ID50, dose giving 50% inhibition to esterase [4] [µg/mL] | Degree (%) of suppression of swelling [3, 8] [%] | Degree (%) of suppression of swelling [3, 9] [%] | also measured |
| --- | --- | --- | --- | --- | --- | --- | --- | --- | --- |
| CCC(C)C(O)C(C)C(=O)C(C)C=C(C)CC(C)C1OC(=O)C1C (stereo not drawn) [Ebelactone A, ebelactone A] | 236 | 12.2 | 45.9 | 18.5 | significant reduction in the degree of swelling | 0.056 (≈ 0.165 µM) | – | – | – |
| CCC(C)C(O)C(C)C(=O)C(C)C=C(C)CC(C)C1OC(=O)C1CC (stereo not drawn) [Ebelactone B, ebelactone B] | 56.7 | 14.1 | 50.6 | 20.9 | significant reduction in the degree of swelling | 0.00035 (≈ 0.000993 µM) | 11.6 | 7.8 | Foodpad thickness ([2]; 0.781 mg/kg intraperitoneal at immunization, control 7.4): 14.2 × 0.1 mm; Foodpad thickness ([2]; 3.125 mg/kg intraperitoneal at immunization, control 7.4): 13.6 × 0.1 mm; Foodpad thickness ([2]; 12.5 mg/kg intraperitoneal at immunization, control 7.4): 13.3 × 0.1 mm; Foodpad thickness ([2]; 50 mg/kg intraperitoneal at immunization, control 7.4): 12.2 × 0.1 mm; Degree (%) of suppression of inflammation ([3]; intraperitoneal, 5 mg/kg, 3 Hours after carragheenin): 17.1%; Degree (%) of suppression of inflammation ([3]; intraperitoneal, 5 mg/kg, 5 Hours after carragheenin): 8.8%; Degree (%) of suppression of inflammation ([3]; intraperitoneal, 10 mg/kg, 3 Hours after carragheenin): 9.1%; Degree (%) of suppression of inflammation ([3]; intraperitoneal, 10 mg/kg, 5 Hours after carragheenin): 10.0%; Degree (%) of suppression of swelling ([3]; oral, 10 mg/kg, 3 Hours after carragheenin): 11.2%; Degree (%) of suppression of swelling ([3]; oral, 10 mg/kg, 5 Hours after carragheenin): 8.2%; reduction in the degree of swelling as compared to the control test group ([3]; oral, 10 mg/kg, at 3 hours and 5 hours from carragheenin injection): significant reduction in the degree of swelling; reduction in the degree of swelling as compared to the control test group ([3]; oral, 50 mg/kg, at 3 hours from carragheenin injection): significant reduction in the degree of swelling; Degree (%) of suppression of swelling ([3]; oral, 100 mg/kg, 3 Hours after carragheenin): 7.0%; Degree (%) of suppression of swelling ([3]; oral, 100 mg/kg, 5 Hours after carragheenin): 9.6%; reduction in the degree of swelling as compared to the control test group ([3]; oral, 100 mg/kg, at 5 hours from carragheenin injection): significant reduction in the degree of swelling |
| CCCCCC=CCC=CCC(CC1OC(=O)C1CCCCCC)OC(=O)C(CC(N)=O)NC(C)=O (stereo not drawn) [Esterastin, esterastin, reference compound] | – | – | 31.1 | 28.1 | – | – | 10.3 | -3.0 | – |
